{"source": "patent US10946071B2", "about": "(MediciNova, Inc., priority 2018, dated 2021)", "key": {"[1]": {"conditions": "Sanftner et al., Xenobiotica 2009; cited from earlier work"}, "[2]": {"test_system": "subjects with primary or secondary progressive multiple sclerosis", "assay": "Phase 2 randomized, double-blind, placebo-controlled 96 week study: progression of disability (EDSS), Cox proportional-hazards regression", "assay_type": "in vivo, human", "conditions": "for Risk of Confirmed Disability Progression: Cox Hazard Ratio (ibudilast vs. placebo): ibudilast 100 mg/d, 90% CI", "description": "A total of 255 male and female subjects from 21 to 65 years old, inclusive, were enrolled into one of two treatment arms (ibudilast 100 mg/d or matching-placebo). […] During the study, subjects were allowed to change medications from one injectable to the other. […] Inhaled and topical steroids are allowed. If a relapse episode occured, a single course of systemic corticosteroids was permitted, as prescribed by the treating neurologist. Subjects returned to the clinic for follow-up visits on a regular basis at Week 4, 8, 12, 24, 36, 48, 60, 72, 84 and 96.\nThe double-blind Treatment Phase consisted of a Baseline visit followed by 10 scheduled clinic visits. The Baseline Visit had to have occured within 45 days following the Screening Visit. At the Baseline Visit (Day 1), subjects who completed all of the screening assessments and continued to meet eligibility criteria were randomized to one of two treatment groups (ibudilast 100 mg/d or placebo) in a 1:1 ratio.\nSubjects took their first dose of study medication (30 mg ibudilast or placebo) on the evening of the Baseline Visit (Day 1). On the morning of Day 2, all subjects begun a 3 capsule BID dosing regimen through Day 14. Subjects randomized to ibudilast started at 60 mg/d (30 mg BID) on Day 2 and remained on 60 mg/d through Day 14. Beginning on Day 15, all subjects increased dosing to 5 capsules BID regimen; those randomized to the ibudilast treatment arm were taking 100 mg/d.\nAfter Day 15, subjects with intolerable side-effects (e.g., nausea, diarrhea, vertigo) were allowed to reduced their dose to either 4 capsules twice a day (80 mg/d for those taking ibudilast) or 3 capsules twice a day (60 mg/d for those taking ibudilast). Subjects with intolerable side-effects (e.g., nausea, diarrhea, vertigo) at the end of Day 14 were allowed to continue taking 3 capsules twice a day at the Investigator's discretion. At the Investigator's discretion, the daily dose of ibudilast were potentially adjusted between 3 capsules twice a day, 4 capsules twice a day, and 5 capsules twice a day over the first 8 weeks of treatment. At the Investigator's discretion, the daily dose of ibudilast could have been divided and taken three times per day if needed to improve tolerability. […] The dosing interval was either twice a day or 3 times per day, at the Investigator's discretion. The dosing interval could also be changed to between twice and three times per day over the course of the entire study, at the Investigator's discretion.\nProgression of disability was measured according to the score on the Expanded Disability Status Scale (EDSS; range, 0 to 10 in 0.5-point increments, with higher scores indicating more disability) with the use of Cox proportional-hazards regression. Confirmed disability progression was defined as an increase in the EDSS score of at least 1.0 point from baseline (or an increase of ≥0.5 points for patients with a baseline EDSS score of >5.0) that was sustained for at least 20 weeks."}}, "data": [{"smiles": "CC(C)C(=O)c1c(C(C)C)nn2ccccc12", "note": "[ibudilast, 3-isobutyryl-2-isopropylpyrazolo[1,5-a]pyridine]", "values": [{"measurement": "CNS penetration", "setting": "[1]", "value": "good CNS penetration"}, {"measurement": "hazard ratio for 20-week confirmed disability progression (as measured by the EDSS score) with ibudilast as compared with placebo", "setting": "[2]; all subjects, ibudilast 100 mg/d oral vs placebo, 96 weeks, 95% CI", "value": 0.74}, {"measurement": "probability of no progression at week 72", "setting": "[2]; subgroup receiving interferon-beta, ibudilast arm (placebo arm 0.804)", "value": 0.952}, {"measurement": "proportion of subjects with disability progression at week 96 (not confirmed progression): ibudilast vs. placebo risk difference", "setting": "[2]; subgroup receiving interferon-beta, week 96, 90% CI: −0.499 to −0.068", "value": "−0.283"}, {"measurement": "time to confirmed disability progression, ibudilast compared with placebo (in words)", "setting": "[2]; subgroup taking GA as concomitant medication", "value": "the placebo arm was superior to ibudilast"}, {"measurement": "Risk of Confirmed Disability Progression: Cox Hazard Ratio (ibudilast vs. placebo)", "setting": "[2]; subgroup: concomitant medication taking GA (glatiramer acetate)", "value": 1.229}, {"measurement": "Risk of Confirmed Disability Progression: Cox Hazard Ratio (ibudilast vs. placebo)", "setting": "[2]; subgroup: concomitant medication taking Interferon-Beta", "value": 0.238}, {"measurement": "Risk of Confirmed Disability Progression: Cox Hazard Ratio (ibudilast vs. placebo)", "setting": "[2]; subgroup: no concomitant glatiramer acetate or interferon-beta", "value": 0.672}, {"measurement": "time to confirmed disability progression, ibudilast compared with placebo (in words)", "setting": "[2]; the other two subgroups (concomitant interferon-beta; no concomitant medication)", "value": "ibudilast was better than placebo"}]}]}
